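Results reflect a 48-hour exposure of cells in 96-well plates to compound at five concentrations. GI50 is the concentration that inhibits growth by half.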 Active and inactive are the calls of the source. No stated cut-off is given here; in the data, active = GI50 up to about 1.1 µM and inactive = higher.
Tests used:
Assay in all cases: DTP human tumour cell line panel, 48 h
A498 = test system: A498
ACHN = test system: ACHN
CAKI-1 = test system: CAKI-1
HT-29 = test system: HT-29
K562 = test system: K562
MOLT-4 = test system: MOLT-4
OVCAR-4 = test system: OVCAR-4
OVCAR-5 = test system: OVCAR-5
SF-539 = test system: SF-539
SK-MEL-28 = test system: SK-MEL-28
SK-MEL-2 = test system: SK-MEL-2
SK-MEL-5 = test system: SK-MEL-5
SN12C = test system: SN12C
SNB-19 = test system: SNB-19
SW-620 = test system: SW-620
TK-10 = test system: TK-10
UO-31 = test system: UO-31
HCT-116 = test system: HCT-116

Row | Structure (SMILES) | GI50 (A498) | GI50 (ACHN) | GI50 (CAKI-1) | GI50 (HT-29) | GI50 (K562) | GI50 (MOLT-4) | GI50 (OVCAR-4) | GI50 (OVCAR-5) | GI50 (SF-539) | GI50 (SK-MEL-28) | GI50 (SK-MEL-2) | GI50 (SK-MEL-5) | GI50 (SN12C) | GI50 (SNB-19) | GI50 (SW-620) | GI50 (TK-10) | GI50 (UO-31) | GI50 (HCT-116)
1 | CC1CC(c2cccc3c2OCO3)=Nc2ccccc2S1 (stereo not drawn) | > 100 µM (inactive) | > 100 µM (inactive) | > 100 µM (inactive) | > 100 µM (inactive) | > 100 µM (inactive) | > 100 µM (inactive) | > 100 µM (inactive) | > 100 µM (inactive) | > 100 µM (inactive) | > 100 µM (inactive) | > 100 µM (inactive) | > 100 µM (inactive) | > 100 µM (inactive) | > 100 µM (inactive) | > 100 µM (inactive) | > 100 µM (inactive) | > 100 µM (inactive) | –
2 | CCCCN(CCCC)CC(C(C)=O)C(c1ccccc1)c1c(O)c2ccccc2oc1=O (stereo not drawn) | – | > 100 µM (inactive) | > 100 µM (inactive) | > 100 µM (inactive) | > 100 µM (inactive) | > 100 µM (inactive) | > 100 µM (inactive) | > 100 µM (inactive) | > 100 µM (inactive) | > 100 µM (inactive) | > 100 µM (inactive) | > 100 µM (inactive) | > 100 µM (inactive) | > 100 µM (inactive) | > 100 µM (inactive) | > 100 µM (inactive) | – | > 100 µM (inactive)
3 | CN(C)c1ccc(-c2nc(N)nc3c2CCCC3)cc1 | 35.6 µM (inactive) | 26.4 µM (inactive) | 52.1 µM (inactive) | – | 29.3 µM (inactive) | 30.2 µM (inactive) | – | > 100 µM (inactive) | > 100 µM (inactive) | 61.8 µM (inactive) | 56.8 µM (inactive) | 34.7 µM (inactive) | 37.9 µM (inactive) | > 100 µM (inactive) | > 100 µM (inactive) | 49.1 µM (inactive) | 41.5 µM (inactive) | 38.3 µM (inactive)
4 | CC(=O)C1C(c2ccc(N(C)C)cc2)c2cc3c(cc2OC1(C)O)OCO3 (stereo not drawn) | – | 41.2 µM (inactive) | 20.5 µM (inactive) | 23.2 µM (inactive) | 24 µM (inactive) | 32.1 µM (inactive) | 33.7 µM (inactive) | – | – | 57.4 µM (inactive) | 33.3 µM (inactive) | 30.8 µM (inactive) | 40.1 µM (inactive) | 75.7 µM (inactive) | 40.2 µM (inactive) | 51.2 µM (inactive) | 29.4 µM (inactive) | 39.8 µM (inactive)
5 | Cc1nc(Nc2ccccc2)sc1C(=O)NNc1ccc([N+](=O)[O-])cc1[N+](=O)[O-] | – | 14.2 µM (inactive) | 31.5 µM (inactive) | 35 µM (inactive) | 12 µM (inactive) | 24.7 µM (inactive) | 29.6 µM (inactive) | 33.7 µM (inactive) | 32.7 µM (inactive) | > 100 µM (inactive) | 38.5 µM (inactive) | 25.5 µM (inactive) | 49 µM (inactive) | 47.1 µM (inactive) | 39.9 µM (inactive) | 52.5 µM (inactive) | 24 µM (inactive) | 42.4 µM (inactive)
6 | Cc1ccc(S(=O)(=O)SCc2ccccc2CSS(=O)(=O)c2ccc(C)cc2)cc1 | 91.2 µM (inactive) | 29 µM (inactive) | 22.9 µM (inactive) | 22.7 µM (inactive) | 15.7 µM (inactive) | 16 µM (inactive) | 18.7 µM (inactive) | > 10 µM (inactive) | 19.5 µM (inactive) | 19.1 µM (inactive) | – | 59.4 µM (inactive) | 17.7 µM (inactive) | > 100 µM (inactive) | 17.1 µM (inactive) | > 100 µM (inactive) | 78.3 µM (inactive) | 21.3 µM (inactive)
7 | CC(=O)OCC1OC(n2cc(F)c(=O)[nH]c2=O)C(NC(=O)N(CCCl)N=O)C(OC(C)=O)C1OC(C)=O (stereo not drawn) | > 100 µM (inactive) | > 100 µM (inactive) | > 100 µM (inactive) | > 100 µM (inactive) | > 100 µM (inactive) | 87.1 µM (inactive) | > 100 µM (inactive) | – | 29.3 µM (inactive) | > 100 µM (inactive) | – | > 100 µM (inactive) | > 100 µM (inactive) | > 100 µM (inactive) | > 100 µM (inactive) | > 100 µM (inactive) | > 100 µM (inactive) | > 100 µM (inactive)
8 | CC(=O)c1cccc(N2COC(C)(C)c3nc4ccccc4n3C2)c1 | > 100 µM (inactive) | > 100 µM (inactive) | – | > 100 µM (inactive) | > 100 µM (inactive) | > 100 µM (inactive) | 14.3 µM (inactive) | – | > 100 µM (inactive) | > 100 µM (inactive) | > 100 µM (inactive) | – | > 100 µM (inactive) | > 100 µM (inactive) | > 100 µM (inactive) | > 100 µM (inactive) | > 100 µM (inactive) | > 100 µM (inactive)
9 | CS/C(=N/C#N)NCCc1c[nH]c2ccccc12 | – | 25.1 µM (inactive) | – | 98.4 µM (inactive) | 67 µM (inactive) | 80.7 µM (inactive) | > 100 µM (inactive) | > 100 µM (inactive) | > 100 µM (inactive) | > 100 µM (inactive) | – | 76 µM (inactive) | > 100 µM (inactive) | > 100 µM (inactive) | > 100 µM (inactive) | > 100 µM (inactive) | 49 µM (inactive) | > 100 µM (inactive)
10 | CN(C)CC/C(=N\Nc1ccc(Cl)cc1)c1ccccc1 | 3.64 µM (inactive) | 0.478 µM (active) | – | 1.28 µM (inactive) | 0.327 µM (active) | 0.403 µM (active) | 1.77 µM (inactive) | 1.24 µM (inactive) | 1.92 µM (inactive) | 1.52 µM (inactive) | 1.86 µM (inactive) | 1.7 µM (inactive) | 1.58 µM (inactive) | 2.43 µM (inactive) | 0.431 µM (active) | 0.593 µM (active) | 0.25 µM (active) | 1.18 µM (inactive)
11 | CC(=O)Nc1cc2c(s1)CCC1CC(=O)NN=C21 (stereo not drawn) | – | > 100 µM (inactive) | – | > 100 µM (inactive) | > 100 µM (inactive) | > 100 µM (inactive) | > 100 µM (inactive) | > 100 µM (inactive) | > 100 µM (inactive) | > 100 µM (inactive) | > 100 µM (inactive) | > 100 µM (inactive) | > 100 µM (inactive) | > 100 µM (inactive) | > 100 µM (inactive) | > 100 µM (inactive) | > 100 µM (inactive) | > 100 µM (inactive)
12 | CCOC(=O)C1=NC(c2ccccc2)(c2ccccc2)OC1=C(Cl)Cl | > 100 µM (inactive) | 50.4 µM (inactive) | > 100 µM (inactive) | 32.4 µM (inactive) | 32 µM (inactive) | 36 µM (inactive) | 63 µM (inactive) | 96.2 µM (inactive) | > 100 µM (inactive) | > 100 µM (inactive) | – | 39.5 µM (inactive) | > 100 µM (inactive) | > 100 µM (inactive) | 82.4 µM (inactive) | > 100 µM (inactive) | 65 µM (inactive) | 29.2 µM (inactive)
13 | CCOc1ccc(NC(=O)C2=C(C)NC(C)=C(C(=O)Nc3ccc(OCC)cc3)C2c2ccccc2)cc1 | > 100 µM (inactive) | 74.6 µM (inactive) | > 100 µM (inactive) | > 100 µM (inactive) | 38.5 µM (inactive) | 44.8 µM (inactive) | > 100 µM (inactive) | > 100 µM (inactive) | > 100 µM (inactive) | > 100 µM (inactive) | 56.8 µM (inactive) | 74.3 µM (inactive) | > 100 µM (inactive) | > 100 µM (inactive) | > 100 µM (inactive) | > 100 µM (inactive) | 29.2 µM (inactive) | –
14 | CC1(C)COC(c2cccc3c2C(=O)c2cccc(Cl)c2-3)=N1 | 32.1 µM (inactive) | 51.1 µM (inactive) | 55 µM (inactive) | 32 µM (inactive) | 33.7 µM (inactive) | 29.2 µM (inactive) | 44.1 µM (inactive) | > 100 µM (inactive) | 68.7 µM (inactive) | 58.7 µM (inactive) | > 100 µM (inactive) | 25.3 µM (inactive) | 74 µM (inactive) | 21.1 µM (inactive) | 37.8 µM (inactive) | 41.7 µM (inactive) | 27.1 µM (inactive) | –
15 | COc1cc(/C=C(\C#N)C(=O)c2ccccc2)ccc1OCc1ccccc1 | – | > 100 µM (inactive) | > 100 µM (inactive) | – | > 100 µM (inactive) | > 100 µM (inactive) | > 100 µM (inactive) | > 100 µM (inactive) | > 100 µM (inactive) | > 100 µM (inactive) | > 100 µM (inactive) | > 100 µM (inactive) | > 100 µM (inactive) | > 100 µM (inactive) | > 100 µM (inactive) | > 100 µM (inactive) | > 100 µM (inactive) | > 100 µM (inactive)
16 | O=C1C(Br)=C[C@H]2C3C=CC(Br)(C3=O)[C@@H]12 (stereo partly drawn) | 19 µM (inactive) | 14.6 µM (inactive) | 9.25 µM (inactive) | 10.5 µM (inactive) | 7.62 µM (inactive) | 2.3 µM (inactive) | 15.7 µM (inactive) | 15.6 µM (inactive) | 13.3 µM (inactive) | 12.6 µM (inactive) | 14.3 µM (inactive) | 14 µM (inactive) | 13.2 µM (inactive) | 14.1 µM (inactive) | 9.18 µM (inactive) | – | 16.7 µM (inactive) | 10.9 µM (inactive)
17 | CCCn1c(SCC)c2cc3cc4ccccc4cc3cc2c1-c1nc(F)nc(F)n1 | – | > 100 µM (inactive) | > 100 µM (inactive) | > 100 µM (inactive) | > 100 µM (inactive) | > 100 µM (inactive) | > 100 µM (inactive) | > 100 µM (inactive) | > 100 µM (inactive) | > 100 µM (inactive) | > 100 µM (inactive) | > 100 µM (inactive) | > 100 µM (inactive) | > 100 µM (inactive) | > 100 µM (inactive) | > 100 µM (inactive) | > 100 µM (inactive) | > 100 µM (inactive)
